Assay results reported in patent US8546416B2, “3-spirocyclic piperidine derivatives as ghrelin receptor agonists” (Novartis AG, priority 2011, dated 2013).

Experiments:
[1] = biological target: T1, human recombinant ghrelin receptor (GHS-R1a) (Homo sapiens, UniProt Q92847); assay: hGHS-R1a Ca assay (Fluo-4 calcium assay in CHO-K1 cells); format: cell-based; conditions: CHO-K1 cells expressing human GHS-R1a; agonist dose response up to 30 μM
T1 construct: host or cells: CHO-K1
Description: (§1) Chinese hamster ovary (CHO-K1) cells expressing human recombinant ghrelin receptor (GHS-R1a) were purchased from Euroscreen (ES-410-C) and propagated in UltraCHO medium containing glutamine and supplemented with 1% heat inactivated foetal calf serum (FCS), 100 U/ml penicillin, 100 mg/l streptomycin and 0.8 g/l geneticin. Cells were sub-cultured twice a week with a 1:10 dilution. For passaging, cells were washed with 1×DPBS without calcium and magnesium, trypsinised for 10 min with 0.05% Trypsin/EDTA and resuspended in cell culture medium.
Cells were diluted to achieve 1×10^6 cells/ml, seeded in 384-well black clear bottom CellBind plates at 25000 cells/well (25 ul) and incubated overnight at 37° C./5% CO2 Cells were expected to be 85-90% confluent on the day of assay (checked under the microscope) to ensure a high quality assay. Media was manually removed and 40 μl of loading solution containing probenecid and Fluo-4 no wash dye (a calcium indicator, Invitrogen F36206) were added to each well. After 30 min at 37° C. followed by another 30 min at RT, cpds were added to the wells. To generate a dose response up to 30 μM, 10 mM compound stocks in 100% (v/v) DMSO were firstly diluted in 50% (v/v) DMSO. Then, serial dilutions aimed at a full logarithmic dose responses (8 point) were performed in assay buffer [1×HBSS, 20 mM Hepes, 0.1% (w/v) BSA] to give 2.5% (v/v) DMSO and 5× final compound concentrations. The final assay DMSO concentration was 0.5% (v/v). After loading the cells with Fluo-4 containing solution, plates were read on a CellLux instrument (Perkin Elmer). A protocol set up to add 10 μl of 5× compound and to read the plate for 60 sec after adding the compound at 17th sec was used. Fluorescence excitation took place at 494 nm and emission at 516 nm. EC50 values of agonists were calculated by fitting the percent stimulation over background [(Max−Min)/Min] using the nonlinear logistic function of the Prism 5 software (GraphPad, USA).

[2] = biological target: T1, human recombinant ghrelin receptor (GHS-R1a); assay: hGHS-R1a cAMP assay (HTRF cAMP dynamic 2 kit, CHO-hGHS-R1a cells); format: cell-based; conditions: 60 min incubation, dose response up to 30 μM
Description: as §1
The Homogeneous Time-Resolved Fluorescence (HTRF) cAMP dynamic 2 kit (Cisbio International, France) was used as follows. CHO-hGHS-R1a or CHO-rGHS-R1a cells were seeded in a volume of 25 μl culture media at 10,000 cells/well (400,000 cells/ml) in Greiner white 384-well high volume plates and incubated overnight (18-24 h) at 37° C./5% CO2. Then, media was removed and 6 μl assay buffer [HBSS, 10 mM Hepes, 0.2% (w/v) BSA, 1.7 mM IBMX, (pH7.4)] were added to the wells. To generate a dose response up to 30 μM, 10 mM compound stocks in 100% (v/v) DMSO were firstly diluted in 50% (v/v) DMSO followed by a further dilution into assay buffer. Then, 4 μl of 2.5× compound (dose response as 9 point log serial dilution in assay buffer from 30 μM as maximum concentration) were added to each well achieving a final DMSO assay concentration of 0.8% (v/v). 0.1 μM forskolin was added as positive control. After 30 min (rGHS-R1a cell line) or 60 min (hGHS-R1a cell line) incubation at 37° C./5% CO2, 5 μl of cAMP-d2 and 5 μl of anti-cAMP antibody-cryptate, (both made in lysis buffer), were added to the plate followed by 1 h incubation at RT. During this time, cAMP produced by the cells competed with cAMP-d2 for the anti-cAMP antibody-cryptate molecule. Then, the plate was read on the Pherastar instrument (BMG, Germany) at two different emission wavelengths (620 and 650 nm). Increasing levels of endogenous cAMP produced by cells could be followed by a decrease of FRET fluorescent signal and viceversa. Values represented by a change in arbitrary fluorescence ratios (665/620) were converted into cAMP concentrations by using a standard curve, the reagents for which were supplied with the kit. EC50 values of agonists were calculated using the nonlinear logistic function of the Prism 5 software (GraphPad, USA). Emax were expressed as relative values of the ghrelin response, which was defined as 100%.

T1 sequence (Q92847 whole entry): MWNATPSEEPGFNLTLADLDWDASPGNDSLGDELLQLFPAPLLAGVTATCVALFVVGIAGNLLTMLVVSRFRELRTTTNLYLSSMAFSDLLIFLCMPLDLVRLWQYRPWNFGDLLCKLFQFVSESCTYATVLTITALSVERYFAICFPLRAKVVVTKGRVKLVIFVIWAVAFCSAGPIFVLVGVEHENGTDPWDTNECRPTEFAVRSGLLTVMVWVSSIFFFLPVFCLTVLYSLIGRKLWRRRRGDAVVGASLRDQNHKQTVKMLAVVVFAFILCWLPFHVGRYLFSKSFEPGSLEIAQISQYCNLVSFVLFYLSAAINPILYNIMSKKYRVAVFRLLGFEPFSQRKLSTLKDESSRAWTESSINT

EC50 [1] | EC50 [2] | SMILES
0.0017 µM | 0.385 µM | CN1N=C(c2ccccc2)C2(CCCN(C(=O)[C@@H](COCc3ccccc3)NC(=O)C(C)(C)N)C2)C1=O (mixture of isomers) [Example 1.47, 2-Amino-N-[(R)-1-benzyloxymethyl-2-(3-methyl-4-oxo-1-phenyl-2,3,7-triaza-spiro[4.5]dec-1-en-7-yl)-2-oxo-ethyl]-2-methyl-propionamide]
0.0023 µM | 1.34 µM | CN1C[C@H](c2ccccc2)[C@]2(CCCN(C(=O)[C@@H](COCc3ccccc3)NC(=O)C(C)(C)N)C2)C1=O (single isomer, unassigned) [Example 1.0(i)]
0.00016 µM | 0.043 µM | CN1C[C@@H](c2ccccc2)[C@@]2(CCCN(C(=O)[C@@H](COCc3ccccc3)NC(=O)C(C)(C)N)C2)C1=O (single isomer, unassigned) [Example 1.0(ii)]
0.0002 µM | 0.051 µM | CC(C)(N)C(=O)N[C@H](COCc1ccccc1)C(=O)N1CCCC2(C1)C(=O)NCC2c1ccccc1 (single isomer, unassigned) [Example 1.4]
0.0001 µM | 0.02 µM | CC(C)N1CC(c2ccccc2)C2(CCCN(C(=O)[C@@H](COCc3ccccc3)NC(=O)C(C)(C)N)C2)C1=O (single isomer, unassigned) [Example 1.5]
0.0005 µM | 0.039 µM | CN(C)C(=O)CN1CC(c2ccccc2)C2(CCCN(C(=O)[C@@H](COCc3ccccc3)NC(=O)C(C)(C)N)C2)C1=O (single isomer, unassigned) [Example 1.16]
0.0016 µM | 2.28 µM | CN1CC(c2ccccc2)C2(CCCN(C(=O)[C@@H](COCc3ccccc3)NC(=O)C(C)(C)N)C2)C1=O (single isomer, unassigned) [Example 1.20]
0.0021 µM | 1.93 µM | CN1CC(c2ccccc2)C2(CCCN(C(=O)[C@@H](COCc3ccccc3)NC(=O)C(C)(C)N)C2)C1=O (single isomer, unassigned) [Example 1.21]
0.0003 µM | 0.043 µM | CCN1CC(c2ccccc2)C2(CCCN(C(=O)[C@@H](COCc3ccccc3)NC(=O)C(C)(C)N)C2)C1=O (single isomer, unassigned) [Example 1.25]

Continued, molecule first:

SMILES | EC50 [1] | EC50 [2]
CN1CC(c2ccc(Cl)cc2)C2(CCCN(C(=O)[C@@H](COCc3ccccc3)NC(=O)C(C)(C)N)C2)C1=O (single isomer, unassigned) [Example 1.8] | 0.0003 µM | 0.162 µM
CN1CC(c2ccc(F)cc2)C2(CCCN(C(=O)[C@@H](Cc3c[nH]c4ccccc34)NC(=O)C(C)(C)N)C2)C1=O (single isomer, unassigned) [Example 1.11] | 0.0003 µM | 0.023 µM
CC(C)N1CC(c2ccc(F)cc2)C2(CCCN(C(=O)[C@@H](Cc3cn(C)c4ccccc34)NC(=O)C(C)(C)N)C2)C1=O (single isomer, unassigned) [Example 1.15] | 0.0016 µM | 0.128 µM
CNC(C)(C)C(=O)N[C@H](COCc1ccccc1)C(=O)N1CCCC2(C1)C(=O)N(C)CC2c1ccccc1 (single isomer, unassigned) [Example 1.17] | 0.001 µM | 0.082 µM
CN1CC(c2ccccc2)C2(CCCN(C(=O)[C@@H](CCc3ccccc3)NC(=O)C(C)(C)N)C2)C1=O (single isomer, unassigned) [Example 1.28] | 0.00065 µM | 0.141 µM
Cc1ccc(COC[C@@H](NC(=O)C(C)(C)N)C(=O)N2CCCC3(C2)C(=O)N(C)CC3c2ccc(F)cc2)cc1 (single isomer, unassigned) [Example 1.29] | 0.00035 µM | 0.049 µM
CN1CC(c2ccccc2)C2(CCCN(C(=O)[C@@H](CCCc3ccccc3)NC(=O)C(C)(C)N)C2)C1=O (single isomer, unassigned) [Example 1.32] | 0.0003 µM | 0.011 µM
C[C@H](OCc1ccccc1)[C@@H](NC(=O)C(C)(C)N)C(=O)N1CCCC2(C1)C(=O)N(C)CC2c1ccccc1 (single isomer, unassigned) [Example 1.34] | 0.0005 µM | 0.184 µM
